Source: PubChem BioAssay AID179 (DTP/NCI, 2004)
Where “and” joins values, the source holds several entries; their conditions need not be identical. Identical values can stand only once. Calls of active or inactive are those of the source.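 The calls were made as follows: active = compounds giving half or more protection of infected cells from virus-caused growth loss, again on retest; inactive = the rest.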

System: CEM cells HIV-1 protection, formazan growth assay
Assay: NCI AIDS Antiviral Assay
Conditions: for IC50: measured here: growth of uninfected CEM cells
Summary of the method: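 Steps: treat uninfected and HIV-1-infected human CEM cells at five drug levels; quantify growth by soluble formazan; retest any compound reaching 50% protection; classify actives from the retest.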

Row | SMILES | EC50 [µM] | IC50 | outcome
1 | COc1ccc(/C=C2\N=C(NN)N=C2Cl)cc1 | > 200 | > 200 µM | 
2 | COc1ccc(NC(=O)CC(=O)n2nc(C)c(N=Nc3cccc(C)c3)c2C)cc1 | > 200 | > 200 µM | 
3 | Cc1ccc(S(=O)(=O)N2CC3(CN(S(=O)(=O)c4ccc(C)cc4)CC4(C2)OCCO4)OCCO3)cc1 | > 200 | 85.1 µM | 
4 | COc1ccccc1NC(=O)C(=O)C(C#N)CC(C)(C)C=O (centres undefined) | > 85.1 | > 85.1 µM | 
5 | c1ccc2c(c1)SCC1COCOC21 (centres undefined) | > 631 | 617 µM | 
6 | [Cu+2].[O-]/C(=N\N=C/c1ccccc1F)c1ccncc1.[O-]/C(=N\N=C\c1ccccc1F)c1ccncc1 | > 100 | 16.2 µM | 
7 | CC(=O)O[C@]12CCCCC1C1(O)C(O)CCCCC12 (some centres undefined) | > 200 | > 200 µM | 
8 | CC(O)C(=O)[O][Pb]([CH3])([CH3])[CH3] (centres undefined) | > 200 | > 200 µM | 
9 | CN(C)C1C(=O)C(C(N)=O)=C(O)C2(O)C(=O)C3=C(O)c4c(O)cccc4C(C)(O)C3C(O)C12 (centres undefined) | > 263 | 95.5 µM | 
10 | O=C(CCc1ccccc1CO)NCCc1ccccc1 | > 200 | > 200 µM | 
11 | O=C(NCc1ccccc1)c1cc2ccc(O)c(O)c2cn1 | > 100 | 1.7 µM and > 6.31 µM | 
12 | COc1ccccc1/C=C/c1ccnc2ccccc12 | > 200 | 32.4 µM | 
13 | CCCCCCCCCCCC(=O)OCCOCCOCCOCCOCCOCCOCCOCCOCCO | > 200 | 145 µM | 
14 | CN(c1c(Cl)cccc1Cl)S(=O)(=O)c1ccccc1[N+](=O)[O-] | > 200 | 66.1 µM | 
15 | Nc1c(Cl)ncnc1N[C@@H]1C[C@H]1CO | > 200 | > 200 µM | 
16 | Cn1c(=O)c2c(ncn2CCCCOc2ccc3c(c2)[n+]([O-])nc(N)[n+]3[O-])n(C)c1=O | > 200 | 23.4 µM | 
17 | O=C1CC=CN1CCn1c(=S)[nH]c2ccccc21 | > 501 | > 501 µM | 
18 | CCOC(=O)/C(F)=C/c1ccc([N+](=O)[O-])cc1 | > 41.7 | > 41.7 µM | 
19 | C=C1C(C(=O)OC)[C@@]2(C)C(C(=O)OC)C(=O)C(C(=O)OC)[C@@]2(CCC)C1C(=O)OC (some centres undefined) | > 141 | 72.4 µM | 
20 | Cc1ccc(S(=O)(=O)OC2C3CC4C(=O)OC2C4C3)cc1 (centres undefined) | 126 | > 200 µM | 

Row | SMILES | EC50 [µM] | IC50 | outcome
21 | CC(=O)OCC1OC(n2c(-c3ccc(C)cc3)cc(-c3ccco3)c(C#N)c2=O)C(OC(C)=O)C(OC(C)=O)C1OC(C)=O (centres undefined) | > 16.2 | > 16.2 µM | 
22 | CCCCCCc1cc2cc(-c3csc(CC#N)n3)c(=O)oc2cc1O | > 200 | > 200 µM | 
23 | CCOP(=O)(OCC)C(C(=O)OC)C(=O)C(=O)Nc1c(C)cc(Br)cc1C (centres undefined) | > 537 | > 537 µM | 
24 | NC(=S)Nc1[nH]c(=S)nc2c1c(-c1ccccc1)cn2C(=O)c1ccccc1 | > 25.1 | > 25.1 µM | 
25 | C/C=C/C=C\C=C/C(O)C(C)C(CCC(C)C1OC(=O)C=CC1C)OP(=O)(O)O (centres undefined) | > 2 | 0.129 µM | 
26 | CCc1noc2ccccc12 | > 339 | > 339 µM | 
27 | NC(=O)C(=CNc1nc(-c2ccc(Cl)c(Cl)c2)cs1)C(N)=O | > 200 | 102 µM | 
28 | Cc1nc(Nc2ccc(Cl)cc2)sc1C(=O)NNc1ccc([N+](=O)[O-])cc1[N+](=O)[O-] | > 39.8 | 25.1 µM | 
29 | CCCCCCCCCCCCCCCCCC(=O)OCC(CO)OC(=O)CCCCCCCCCCCCCCCCC (centres undefined) |  |  | inactive
30 | N#CCCN(CCC#N)c1ccc(/C=C2\N=C(CN3C(=O)c4ccccc4C3=O)OC2=O)cc1 | > 79.4 | > 79.4 µM | 
31 | Cn1c(=O)c2c(-c3ccccc3)onc2n(C)c1=O | > 200 | 11 µM | 
32 | COc1cc(NCc2ccc3nc(-c4ccccc4)c(N)nc3c2)cc(OC)c1OC | > 200 | 49 µM | 
33 | COC1CCC(OS(C)(=O)=O)CO1 (centres undefined) | > 200 | 33.9 µM | 
34 | COc1cc(Nc2nc(NS(=O)(=O)c3cc(C)c(Cl)cc3S)n[nH]2)cc(OC)c1OC | 112 | 794 µM | 
35 | C#C[C@]1(O)CC[C@H]2[C@@H]3CCC4=C/C(=N/OC(=O)c5cccc6c(=O)c7ccccc7[nH]c56)CC[C@@H]4[C@H]3CC[C@@]21C | > 200 | 30.9 µM | 
36 | O=C1/C(=N\O)C(c2ccccc2)Oc2ccccc21 (centres undefined) | 20.9 | 38 µM | 
37 | Nc1ccc(C(=O)NN2C(=O)C(Cl)C2c2ccc(O)cc2)cc1 (centres undefined) | > 200 | 9.12 µM | 
38 | Nc1nc(N)c(-c2ccccc2)c(C(=O)Nc2ccccc2)n1 | > 407 | > 407 µM | 
39 | OC12CCC3(O)c4ccccc4C3C1c1ccccc12 (centres undefined) | > 200 | > 200 µM | 
40 | Cc1ccc(S(=O)(=O)/C(C#N)=C\N2CCNC2=S)cc1 | > 200 | > 200 µM | 
